# Measured values published in PubChem BioAssay (NCI).
#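 Test compounds were applied to cells in 96-well plates for 48 hours at 5 doses. Abbreviation: GI50, concentration required for 50% inhibition of growth. TGI: total growth inhibition.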
# System: MDA-MB-468 breast
# Experiment: NCI anticancer screen, dose series, 48 h
SMILES,GI50 [µM],TGI [µM]
O=C(COc1ccccc1)NNc1ccccc1,> 300,> 300
CC(C)(C)c1cc(C[P+](c2ccccc2)(c2ccccc2)c2ccccc2)cc(C(C)(C)C)c1O,0.216,0.771
COC(=O)CCc1n(Cc2ccc3ccccc3c2)c2ccccc2[n+]1Cc1ccc2ccccc2c1,0.196,1.13
NC(=O)c1cn(C2CC(O)C(CO)O2)c2ncnc(N)c12 (stereo not given),0.486,3.77
Cn1cnc([N+](=O)[O-])c1S(=O)(=O)Oc1ccc(Cl)cc1,1.74,3.7
CCCCCCCCCCCCCCCCn1cc[n+](C)c1,0.092,0.431
CCCCCSc1ccc2nc(NC(=O)OCC)sc2c1,0.564,14.8
CCOC(=O)c1c(NN2CCN(CC(F)(F)F)CC2)oc(/C=C2\C=Nc3ncccc32)c1O,3.01,12
CCCN(CCC)c1ccc(/C=N/NC(=O)c2cccnc2)c(C)c1,2.95,15.1
Cc1cccc2c(=O)c3c(sc12)c(NCCCNCCO)nc1ccccc13,1.47,3.04
COc1ccc(Nc2ncc(I)c(NCCCNC(=O)C3CCC3)n2)cc1,11.9,38.6
COc1cccc(/C=N\NC(=O)c2ccncc2)c1O,2.32,11.2
COc1cc(OC)c(C(=O)/C=C/c2ccc(C#N)cc2)c(OC)c1,1.17,3.48
COc1ccc(C(=O)/C=C/c2cc(-c3ccc(OC)c(OC)c3)n[nH]2)cc1OC,1.09,2.56
Cc1nnn(C)c1-c1cnc2c3ccc(C(C)(C)O)cc3n([C@H](c3ccccc3)C3CCOCC3)c2c1,< 0.01,8.91
Clc1cc(Br)ccc1-c1ccc(CNCC2CCNCC2)o1,1.71,3.41
O=C1CN=C(c2ccc[nH]2)c2cc(Cl)ccc2N1,> 100,> 100
CCN1/C(=C/C(C)=C/c2sc3ccc4ccccc4c3[n+]2CC)Sc2ccc3ccccc3c21,0.0156,0.156
Clc1ccc(-c2cnc3c(-c4ccnc(N5CCNCC5)c4)cnn3c2)cc1,1.54,2.99
CCCCCN(CCCCC)CCC[C@@H](C)[C@H]1CC[C@H]2[C@@H]3[C@H](OCCCN)C[C@@H]4C[C@H](OCCCN)CC[C@]4(C)[C@H]3C[C@H](OCCCN)[C@]12C,13,29.8
CCCCN(CCCC)P(=O)(Oc1ccccc1)Oc1ccccc1,3.03,11.7
COC(=O)[C@H](Cc1cn(C)cn1)NC(=O)[C@H](CC(C)C)NC(=O)Nc1cc(C(F)(F)F)cc(C(F)(F)F)c1,3.71,> 10
COc1ccc(Sc2[nH]c(C=O)c3ccccc23)cc1,1.42,24.3

SMILES,GI50 [µM],TGI [µM]
CC(C)[C@@]12C[C@@H](OC(=O)C3CO3)[C@@](C)(O1)[C@@H]1CC[C@@H](C)[C@H]1[C@@H]2OC(=O)/C=C/c1ccccc1 (stereo not given in full),16.9,34.8
Cc1ncc(C(=O)Nc2ccc(CN3CCN(C)CC3)c(C(F)(F)F)c2)cc1C#Cc1cnc(N)c2ccc(C#N)cc12,0.0613,5.13
COc1ccc(C2c3ccc4ccccc4c3Oc3ncn(CCCn4ccnc4)c(=N)c32)cc1OC (stereo not given),2.12,5.45
CCOc1ccccc1/C=N\N=C(N/N=C/c1ccccc1OCC)N/N=C/c1ccccc1OCC,1.54,7.16
c1cc(OCCN2CCCC2)ccc1CNc1ccc2nc(CCC3CCCCC3)[nH]c2c1,1.47,3.63
CCc1cc2c(c(OCC(F)(F)F)c(C(=O)NC3CCN(C(=O)CO)CC3)n2C)c(=O)n1CC(=O)c1ccccc1,70.6,> 100
COc1cccc2c1C(=O)c1c(O)c3c(c(O)c1C2=O)C[C@](O)(C(=O)CO)C[C@H]3O[C@@H]1C[C@@H](NC(=O)CCCN(C)C2(c3ccc(F)cc3)CC3CCC2C3)[C@H](O)[C@@H](C)O1 (stereo not given in full),0.879,1.73
CCn1nc(C2CCN(C(=O)CCO)CC2)nc1-c1cnc(N)c(-c2nnc(C(C)(C)C)o2)n1,1.28,16.1
OCc1ccc(-c2nc(-c3ccc4c(c3)OCO4)c(-c3ccccn3)[nH]2)cc1,> 25,> 25
Cc1[nH]c2ccccc2c1CO,19.4,41.4
CCOC(=O)c1ccc(N2NC(=O)/C(=C/c3ccc([N+](=O)[O-])o3)C2=O)cc1,6.69,14.5
O=C(Nc1ccc(I)cc1F)c1cc(Br)ccc1O,0.401,2.33
CC(C)CCN(CCC(C)C)CC(=O)Nc1ccc(S(=O)(=O)c2ccc(NC(=O)CN(CCC(C)C)CCC(C)C)cc2)cc1,2.39,7.52
COC(=O)c1c2c(c(C)[n+]([O-])c1C)C(=O)C(NCc1ccccc1)=CC2=O,1.3,3.15
Cc1ccc(-c2cc(C(=O)Nc3ccc(S(=O)(=O)N4CCCCC4)cc3)[nH]n2)c(O)c1,> 100,> 100
C#CCNC1CCC(c2csc(C#C)n2)=C1C (stereo not given),3.17,18.8
O=C1OC2(c3ccc(O)cc3Oc3cc(O)ccc32)c2cccc3cccc1c23,16.1,34.3
COc1cc2c(cc1OC)[C@@H]1C(=O)c3ccc4c(c3O[C@@H]1CO2)C[C@H](C(C)C)O4,< 0.0181,0.867
CCCCCCOC(=O)CC1=C(C)/C(=C/c2[nH]c(-c3ccc[nH]3)cc2OC)N=C1C,0.155,1.43
Cc1[nH]c(C(=O)Nc2ccc(C(=O)NCCN)cc2OC(C)C)c(Cl)c1Cl,1.91,3.67
COc1cc(CSc2nc3ccc(Cl)cc3c(=O)n2Cc2ccccc2)cc(OC)c1OC,1.07,4.03
COc1ccc(C)c2sc(N(Cc3cccnc3)C(=O)c3ccc(C#N)cc3)nc12,35,> 100
